As a reminder, the Kd is a measure of binding affinity in units of concentration.

These results are taken from article PMC3901310 (Analytical chemistry, 2013).

Holding throughout (format): binding
The target in experiment [1] is T1, Ribonuclease A (RNaseA) (Bos taurus, UniProt P61823).
T1 sequence (P61823 27-150): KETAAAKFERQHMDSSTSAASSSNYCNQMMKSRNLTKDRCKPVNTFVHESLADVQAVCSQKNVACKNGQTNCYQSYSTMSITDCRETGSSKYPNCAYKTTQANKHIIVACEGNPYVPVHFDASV
Nature of the experiment: reactive liquid sample DESI-MS of the native […] complex.

The target of experiment [2] is T1, Ribonuclease A (RNaseA). The description is as above. This is another data set of the same source.
For the next experiment, the target named is lysozyme (Gallus gallus, UniProt P00698). The description is as above.
Sequence of lysozyme (P00698 19-147): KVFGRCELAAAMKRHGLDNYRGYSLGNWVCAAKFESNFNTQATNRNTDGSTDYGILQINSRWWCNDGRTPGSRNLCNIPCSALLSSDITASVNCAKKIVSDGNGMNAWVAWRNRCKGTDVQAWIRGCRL
Experiment [3] has as its target T1, Ribonuclease A (RNaseA). Nature of the experiment: reactive liquid sample DESI-MS of the native complex, ligand titration.

Read-outs that look alike come from different tables or passages of the source.

With `Nc1ccn([C@@H]2O[C@H](CO)[C@@H](O)[C@H]2OP(=O)(O)O)c(=O)n1` [2′-CMP, cytidine 2′-monophosphate], the “reactive liquid sample DESI-MS of the native 1:1 complex ([holo]/[apo] ratio at” value at Ribonuclease A (RNaseA) [1] is on record as 0.13±0.017.

As for `Nc1ccn([C@@H]2O[C@H](COP(=O)(O)OP(=O)(O)O)[C@@H](O)[C@H]2O)c(=O)n1` [CDP, cytidine 5′-diphosphate], the “reactive liquid sample DESI-MS of the native 1:1 complex ([holo]/[apo] ratio at” value at Ribonuclease A (RNaseA) [2] turned out to be 0.37±0.04. In turn, `CC(=O)N[C@H]1[C@H](O[C@H]2[C@H](O)[C@@H](NC(C)=O)C(O)O[C@@H]2CO)O[C@H](CO)[C@@H](O[C@@H]2O[C@H](CO)[C@@H](O)[C@H](O)[C@H]2NC(C)=O)[C@@H]1O` (stereo partly shown) [NAG3, N,N’,N’’-triacetylchitotriose] came in with a Kd on lysozyme of 169 µM. As to `Nc1ccn([C@@H]2O[C@H](COP(=O)(O)OP(=O)(O)OP(=O)(O)O)[C@@H](O)[C@H]2O)c(=O)n1` [CTP, cytidine 5′-triphosphate], the Kd at Ribonuclease A (RNaseA) [3] amounted to 1.91 µM.
